Assay results from PubChem BioAssay (NCI).
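All cell lines were grown in 96-well plates and treated with compound for 48 hours. GI50 = concentration required for 50% inhibition of growth. TGI: total growth inhibition.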

Key:
Assay in all cases: NCI tumour cell line growth inhibition, 48 h; in the data active = GI50 below about 0.43 µM; inactive = the rest
786-0 renal = tested on: 786-0 renal
A498 renal = tested on: A498 renal
A549 NSCLC = tested on: A549 NSCLC
ACHN renal = tested on: ACHN renal
BT-549 breast = tested on: BT-549 breast
CAKI-1 renal = tested on: CAKI-1 renal
CCRF-CEM leukemia = tested on: CCRF-CEM leukemia
COLO 205 colon = tested on: COLO 205 colon
DU-145 prostate = tested on: DU-145 prostate
EKVX NSCLC = tested on: EKVX NSCLC
HCT-116 colon = tested on: HCT-116 colon
HCT-15 colon = tested on: HCT-15 colon
HL-60(TB) leukemia = tested on: HL-60(TB) leukemia
HOP-62 NSCLC = tested on: HOP-62 NSCLC
HOP-92 NSCLC = tested on: HOP-92 NSCLC
HS 578T breast = tested on: HS 578T breast
HT29 colon = tested on: HT29 colon
K-562 leukemia = tested on: K-562 leukemia
KM12 colon = tested on: KM12 colon
M14 melanoma = tested on: M14 melanoma
MCF7 breast = tested on: MCF7 breast
MDA-MB-231 breast = tested on: MDA-MB-231 breast
MDA-MB-435 = tested on: MDA-MB-435
MOLT-4 leukemia = tested on: MOLT-4 leukemia
NCI-H226 lung = tested on: NCI-H226 lung
NCI-H23 lung = tested on: NCI-H23 lung
NCI-H460 lung = tested on: NCI-H460 lung
NCI-H522 lung = tested on: NCI-H522 lung
NCI/ADR-RES ovarian = tested on: NCI/ADR-RES ovarian
OVCAR-3 ovarian = tested on: OVCAR-3 ovarian
OVCAR-4 ovarian = tested on: OVCAR-4 ovarian
OVCAR-5 ovarian = tested on: OVCAR-5 ovarian
OVCAR-8 ovarian = tested on: OVCAR-8 ovarian
PC-3 prostate = tested on: PC-3 prostate
RPMI-8226 leukemia = tested on: RPMI-8226 leukemia
RXF 393 renal = tested on: RXF 393 renal
SF-268 CNS = tested on: SF-268 CNS
SF-295 CNS = tested on: SF-295 CNS
SF-539 CNS = tested on: SF-539 CNS
SK-MEL-2 melanoma = tested on: SK-MEL-2 melanoma
SK-MEL-28 melanoma = tested on: SK-MEL-28 melanoma
SK-MEL-5 melanoma = tested on: SK-MEL-5 melanoma
SK-OV-3 ovarian = tested on: SK-OV-3 ovarian
SN12C renal = tested on: SN12C renal
SNB-19 CNS = tested on: SNB-19 CNS
SNB-75 CNS = tested on: SNB-75 CNS
SR leukemia = tested on: SR leukemia
T-47D breast = tested on: T-47D breast
TK-10 renal = tested on: TK-10 renal
U251 CNS = tested on: U251 CNS
UACC-257 melanoma = tested on: UACC-257 melanoma
UACC-62 melanoma = tested on: UACC-62 melanoma

COc1ccc(CCNC(=O)c2ccc(NC3=C(Cl)C(=O)N(Cc4ccccc4)C3=O)cc2)cc1OC
6.5 µM: TGI (RPMI-8226 leukemia)
> 100 µM: TGI (786-0 renal) | TGI (A549 NSCLC) | TGI (ACHN renal) | TGI (BT-549 breast) | TGI (COLO 205 colon) | TGI (DU-145 prostate) | TGI (EKVX NSCLC) | TGI (HCT-116 colon) | TGI (HCT-15 colon) | TGI (HOP-62 NSCLC) | TGI (HS 578T breast) | TGI (HT29 colon) | TGI (KM12 colon) | TGI (M14 melanoma) | TGI (MCF7 breast) | TGI (MDA-MB-231 breast) | TGI (NCI-H226 lung) | TGI (NCI-H460 lung) | TGI (OVCAR-3 ovarian) | TGI (OVCAR-4 ovarian) | TGI (OVCAR-8 ovarian) | TGI (RXF 393 renal) | TGI (SF-268 CNS) | TGI (SF-295 CNS) | TGI (SK-MEL-28 melanoma) | TGI (SK-OV-3 ovarian) | TGI (SN12C renal) | TGI (SNB-19 CNS) | TGI (SNB-75 CNS) | TGI (T-47D breast) | TGI (U251 CNS)
72.1 µM: TGI (A498 renal)
70.9 µM: TGI (TK-10 renal)
5.75 µM: TGI (HOP-92 NSCLC)
9.11 µM: TGI (CAKI-1 renal)
42.3 µM: TGI (SK-MEL-5 melanoma)
5.21 µM: TGI (K-562 leukemia)
89.9 µM: TGI (NCI-H522 lung)
64.4 µM: TGI (NCI/ADR-RES ovarian)
inactive: GI50 (786-0 renal) 3.88 µM | GI50 (A498 renal) 27.2 µM | GI50 (A549 NSCLC) 33.1 µM | GI50 (ACHN renal) 43 µM | GI50 (BT-549 breast) 7.68 µM | GI50 (CAKI-1 renal) 3.04 µM | GI50 (CCRF-CEM leukemia) 0.48 µM | GI50 (COLO 205 colon) 3.94 µM | GI50 (DU-145 prostate) 16.2 µM | GI50 (EKVX NSCLC) 24.9 µM | GI50 (HCT-116 colon) 6.04 µM | GI50 (HCT-15 colon) 4.1 µM | GI50 (HL-60(TB) leukemia) 2.83 µM | GI50 (HOP-62 NSCLC) 45 µM | GI50 (HOP-92 NSCLC) 2.22 µM | GI50 (HS 578T breast) 4.62 µM | GI50 (HT29 colon) 7.88 µM | GI50 (K-562 leukemia) 2.21 µM | GI50 (KM12 colon) 23.5 µM | GI50 (M14 melanoma) 5.47 µM | GI50 (MCF7 breast) 6.32 µM | GI50 (MDA-MB-231 breast) 4.52 µM | GI50 (MDA-MB-435) 15.8 µM | GI50 (MOLT-4 leukemia) 2.28 µM | GI50 (NCI-H226 lung) 10 µM | GI50 (NCI-H23 lung) 2.01 µM | GI50 (NCI-H460 lung) 32 µM | GI50 (NCI-H522 lung) 4.74 µM | GI50 (NCI/ADR-RES ovarian) 22.3 µM | GI50 (OVCAR-3 ovarian) 10.9 µM | GI50 (OVCAR-4 ovarian) > 100 µM | GI50 (OVCAR-5 ovarian) 16.9 µM | GI50 (OVCAR-8 ovarian) 11.9 µM | GI50 (PC-3 prostate) 6.02 µM | GI50 (RPMI-8226 leukemia) 2.27 µM | GI50 (RXF 393 renal) 7.83 µM | GI50 (SF-268 CNS) 26.2 µM | GI50 (SF-295 CNS) 29.4 µM | GI50 (SF-539 CNS) 23.9 µM | GI50 (SK-MEL-2 melanoma) 16.8 µM | GI50 (SK-MEL-28 melanoma) 15.1 µM | GI50 (SK-MEL-5 melanoma) 6.27 µM | GI50 (SK-OV-3 ovarian) 35.8 µM | GI50 (SN12C renal) 23.9 µM | GI50 (SNB-19 CNS) 27.5 µM | GI50 (SNB-75 CNS) 38.4 µM | GI50 (SR leukemia) 1.44 µM | GI50 (T-47D breast) 5.31 µM | GI50 (TK-10 renal) 11.5 µM | GI50 (U251 CNS) 32.8 µM | GI50 (UACC-257 melanoma) 20.3 µM | GI50 (UACC-62 melanoma) 11.8 µM
48.6 µM: TGI (UACC-257 melanoma)
3.71 µM: TGI (CCRF-CEM leukemia)
4.78 µM: TGI (MOLT-4 leukemia)
43.8 µM: TGI (MDA-MB-435)
74.8 µM: TGI (UACC-62 melanoma)
70.5 µM: TGI (SF-539 CNS)
4.49 µM: TGI (HL-60(TB) leukemia)
27.8 µM: TGI (PC-3 prostate)
43.7 µM: TGI (OVCAR-5 ovarian)
3.15 µM: TGI (SR leukemia)
54.1 µM: TGI (SK-MEL-2 melanoma)
4.46 µM: TGI (NCI-H23 lung)
